In publication PMC9853328, “Potent Platinum(IV) Prodrugs That Incorporate a Biotin Moiety to Selectively Target Cancer Cells” (Pharmaceutics, 2022):

How the values were obtained:
Type in all cases: cell-based
[1] = test system: cisplatin-resistant ADDP ovarian (subclone of A2780) cancer cells; test: MTT in vitro cytotoxicity assay, ADDP; conditions: 72 h drug exposure, n = 3, read-out: GI50 ± SEM, ADDP
Description: (§1) The in vitro cytotoxicity assays were undertaken at Calvary Mater Hospital, Waratah, NSW, Australia, following a method previously published in the literature. A stock solution for each compound was prepared in DMSO (30 mM) and stored at −20 °C. The cell lines used in the study include HT29 colon, U87 glioblastoma, MCF-7 breast, A2780 ovarian, H460 lung, A431 skin, Du145 prostate, BE2-C neuroblastoma, SJ-G2 glioblastoma, MIA pancreas, and cisplatin-resistant ADDP ovarian (subclone of A2780) cancer cells, as well as the non-cancerous-derived MCF10A breast cell line. The cancer cell lines were cultured in a humidified atmosphere 5% CO2 at 37 °C and maintained in Dulbecco’s modified Eagle’s medium (Trace Biosciences, Sydney, Australia), supplemented with 10% foetal bovine serum, sodium bicarbonate (10 mM), penicillin (100 IU/mL), streptomycin (100 µg/mL), and glutamine (4 mM). The non-cancerous MCF10A cell line was maintained in DMEM:F12 (1:1) cell culture media, with 5% heat inactivated horse serum, supplemented with penicillin (50 IU/mL), streptomycin (50 µg/mL), glutamine (2 mM), HEPES (20 mM), epidermal growth factor (20 ng/mL), hydrocortisone (500 ng/mL), cholera toxin (100 ng/mL), and insulin (10 µg/mL). Cells were plated in duplicate in medium (100 µL) at a density of 2500–4000 cells per well in 96-well plates. On day 0, (24 h after plating) when the cells were in logarithmic growth, medium (100 μL) with or without the test agent was added to each well. The growth inhibitory effects were evaluated after 72 h drug exposure, using the MTT (3-(4,5-dimethylthiazol-2-yl)-2,5-diphenyltetrazolium bromide) assay, with the absorbance read at 540 nm. An eight-point dose–response curve was produced, which was used to determine the concentration at which growth was inhibited by 50% (GI50). This calculation was based on the difference between the optical density values on day 0 and those at the end of drug exposure. […] Experiments were conducted on three separate occasions and GI50 values were reported as the mean and standard error of the mean.

[2] = test system: A2780 ovarian cancer cells; test: MTT in vitro cytotoxicity assay, A2780; conditions: 72 h drug exposure, n = 3, read-out: GI50 ± SEM, A2780
Description: as §1

SJ-G2 glioblastoma cells = test: MTT in vitro cytotoxicity assay, SJ-G2; conditions: 72 h drug exposure, n = 3, read-out: GI50 ± SEM, SJ-G2
Description: as §1

[3] = test system: Du145 prostate cancer cells; test: MTT in vitro cytotoxicity assay, Du145; conditions: MTT, 72 h drug exposure, n = 3; read-out: GI50 ± SEM, Du145
Description: as §1

H460 lung cancer cells = test: MTT in vitro cytotoxicity assay, H460; conditions: 72 h drug exposure, n = 3, read-out: GI50 ± SEM, H460
Description: as §1

[4] = test system: BE2-C neuroblastoma cells; test: MTT in vitro cytotoxicity assay, BE2-C; conditions: 72 h drug exposure, n = 3, read-out: GI50 ± SEM, BE2-C
Description: as §1

[5] = test system: MIA pancreas cancer cells; test: MTT in vitro cytotoxicity assay, MIA; conditions: 72 h drug exposure, n = 3, read-out: GI50 ± SEM, MIA
Description: as §1

U87 glioblastoma cells = test: MTT in vitro cytotoxicity assay, U87; conditions: 72 h drug exposure, n = 3, read-out: GI50 ± SEM, U87
Description: as §1

[6] = test system: ADDP (subclone of A2780) versus A2780 ovarian cancer cell lines; test: Resistance factor, GI50 in ADDP/GI50 in A2780
A431 skin cancer cells = test: MTT in vitro cytotoxicity assay, A431; conditions: 72 h drug exposure, n = 3, read-out: GI50 ± SEM, A431
Description: as §1

HT29 colon cancer cells = test: MTT in vitro cytotoxicity assay, HT29; conditions: MTT, 72 h drug exposure, n = 3; read-out: GI50 ± SEM, HT29
Description: as §1

[7] = test system: non-cancerous MCF10A breast cell line; test: MTT in vitro cytotoxicity assay, MCF10A; conditions: 72 h drug exposure, n = 3, read-out: GI50 ± SEM, MCF10A
Description: as §1

[8] = test system: MCF-7 breast cancer cells; test: MTT in vitro cytotoxicity assay, MCF-7; conditions: for GI50: MTT, 72 h drug exposure, n = 3, read-out: GI50 ± SEM, MCF-7; for selectivity towards MCF-7 compared to MCF10A (cytotoxicity): GI50 MCF10A versus GI50 MCF-7

## Cc1cc2ccc[n+]3c2c2c1ccc[n+]2[Pt-2]31[NH2+][C@H]2CCCC[C@@H]2[NH2+]1.[Cl-].[Cl-] [5MESS(II)]
[1]
  GI50: 34 ± 2.3 nM
[2]
  GI50: 61 ± 10 nM
SJ-G2 glioblastoma cells
  GI50: 220 ± 10 nM
[3]
  GI50: 22 ± 2.7 nM
H460 lung cancer cells
  GI50: 41 ± 5 nM
[4]
  GI50: 270 ± 38 nM
[5]
  GI50: 48 ± 2 nM
U87 glioblastoma cells
  GI50: 320 ± 26 nM
[6]
  Resistance factor (RF): 0.557
A431 skin cancer cells
  GI50: 120 ± 25 nM
HT29 colon cancer cells
  GI50: 33 ± 3.8 nM
[7]
  GI50: 30 ± 1.8 nM
[8]
  GI50: 200 ± 12 nM

## Cc1cc2ccc[n+]3c2c2c1ccc[n+]2[Pt-2]31([OH])([OH])[NH2+][C@H]2CCCC[C@@H]2[NH2+]1.O=[N+]([O-])[O-].O=[N+]([O-])[O-] [5MESS(IV)]
[1]
  GI50: 180 ± 24 nM
[2]
  GI50: 110 ± 26 nM
SJ-G2 glioblastoma cells
  GI50: 600 ± 74 nM
[3]
  GI50: 36 ± 3.2 nM
H460 lung cancer cells
  GI50: 180 ± 32 nM
[4]
  GI50: 1100 ± 180 nM
[5]
  GI50: 290 ± 34 nM
U87 glioblastoma cells
  GI50: 830 ± 170 nM
[6]
  Resistance factor (RF): 1.636
A431 skin cancer cells
  GI50: 240 ± 7 nM
HT29 colon cancer cells
  GI50: 150 ± 9 nM
[7]
  GI50: 220 ± 26 nM
[8]
  GI50: 560 ± 200 nM

## COc1cc[n+]2c3c1ccc1c(OC)cc[n+](c13)[Pt-2]21[NH2+][C@H]2CCCC[C@@H]2[NH2+]1.[Cl-].[Cl-] [47OMESS(II)]
[1]
  GI50: 170 ± 10 nM
[2]
  GI50: 230 ± 7 nM
SJ-G2 glioblastoma cells
  GI50: 1300 ± 67 nM
[3]
  GI50: 85 ± 4.8 nM
H460 lung cancer cells
  GI50: 500 ± 58 nM
[4]
  GI50: 2600 ± 260 nM
[5]
  GI50: 240 ± 42 nM
U87 glioblastoma cells
  GI50: 390 ± 60 nM
[6]
  Resistance factor (RF): 0.739
A431 skin cancer cells
  GI50: 350 ± 26 nM
HT29 colon cancer cells
  GI50: 120 ± 16 nM
[7]
  GI50: 430 ± 37 nM
[8]
  selectivity towards MCF-7 compared to MCF10A (cytotoxicity): 3 fold
  GI50: 150 ± 45 nM

## COc1cc[n+]2c3c1ccc1c(OC)cc[n+](c13)[Pt-2]21([OH])([OH])[NH2+][C@H]2CCCC[C@@H]2[NH2+]1.O=[N+]([O-])[O-].O=[N+]([O-])[O-] [47OMESS(IV)]
[1]
  GI50: 1300 ± 58 nM
[2]
  GI50: 1700 ± 230 nM
SJ-G2 glioblastoma cells
  GI50: 7600 ± 1800 nM
[3]
  GI50: 270 ± 38 nM
H460 lung cancer cells
  GI50: 3100 ± 210 nM
[4]
  GI50: 33000 ± 3200 nM
[5]
  GI50: 1900 ± 460 nM
U87 glioblastoma cells
  GI50: 2600 ± 390 nM
[6]
  Resistance factor (RF): 0.765
A431 skin cancer cells
  GI50: 3300 ± 590 nM
HT29 colon cancer cells
  GI50: 520 ± 85 nM
[7]
  GI50: 3700 ± 380 nM
[8]
  selectivity towards MCF-7 compared to MCF10A (cytotoxicity): 7 fold
  GI50: 510 ± 168 nM
